Test results published in patent US8518450B2, “Nanoparticle carriers for drug administration and process for producing same” (CSIR, priority 2008, dated 2013).

Tests used:
[1] = Drug incorporation / encapsulation efficiency of INH (UV-Vis); format: physicochemical; conditions: spray dried PLGA nanoparticles, PLGA:INH 2:1
Method: The amount of the hydrophilic drug Isoniazid that was entrapped in the particle powder after the nanoencapsulation process was measured in triplicate using a spectrophotometric method (UV-Vis, Thermo Spectronic Heliosα). The encapsulation efficiency of INH in nanoparticles was determined as the mass ratio of the entrapped INH to the theoretical amount of INH used in the preparation. For that, 50 mg of precipitated particles were re-suspended in 20 ml of deionised water, centrifuged (10 000 rpm/10 C/5 min) to remove the un-encapsulated drug and the supernatant was subject to UV-Vis Spectrophotometer, read at λ=262 nm for INH assessment. The encapsulated amount of INH was determined by subtracting INH in the supernatant from total initial INH amount.

[2] = INH stability assessment using RP-HPLC; format: physicochemical; conditions: formulation with lactose
Method: The stability of INH spray dried powders was assessed by reverse phase-high performance liquid chromatography-analysis (RP-HPLC) using Shimadzu machine supplied with Photodiode Array (PDA) detector.
The following characteristics were applied: a Column Phenomenex [(C18 (5 μm); (250×4.6 mm ID)], a mobile phase of 5% (v/v) acetonitrile with 95% (v/v) buffer NaH2PO4 (pH 6.8), at a flow rate of 1 ml/min and at a temperature of 30° C. The detection was performed using PDA at λ=259 nm, on a total injection volume of 20 μl.

NNC(=O)c1ccncc1 [INH, isoniazid]
encapsulation efficiency of INH [1]: ~60% | stability of INH in spray dried powders (HPLC) [2]: degradation of INH
